Data published in patent US5418235A, “Aminoalkyl-substituted 5-mercaptothiazoles, the preparation and use thereof” (BASF Aktiengesellschaft, priority 1991, dated 1995).
Counter-ions that a name gives are not always drawn. Like-named read-outs stand apart in the source and are kept apart here.

Molecular target: dopamine D2 receptor (Rattus norvegicus, UniProt P61169)
Assay: Receptor binding assay, 3H-ADTN displacement on rat striatal membranes (affinity for the dopamine D2 receptor)
Set-up: species or system rat (Sprague Dawley)
[1] = rat striatal membranes, 1 nM 3H-ADTN, 0.1 μM SCH 23390, 40 min at 25° C., non-specific binding with 50 nM spiperone, read-out: Ki, affinity of the test substances for the dopamine D2 receptor

Sequence of dopamine D2 receptor (P61169 whole entry): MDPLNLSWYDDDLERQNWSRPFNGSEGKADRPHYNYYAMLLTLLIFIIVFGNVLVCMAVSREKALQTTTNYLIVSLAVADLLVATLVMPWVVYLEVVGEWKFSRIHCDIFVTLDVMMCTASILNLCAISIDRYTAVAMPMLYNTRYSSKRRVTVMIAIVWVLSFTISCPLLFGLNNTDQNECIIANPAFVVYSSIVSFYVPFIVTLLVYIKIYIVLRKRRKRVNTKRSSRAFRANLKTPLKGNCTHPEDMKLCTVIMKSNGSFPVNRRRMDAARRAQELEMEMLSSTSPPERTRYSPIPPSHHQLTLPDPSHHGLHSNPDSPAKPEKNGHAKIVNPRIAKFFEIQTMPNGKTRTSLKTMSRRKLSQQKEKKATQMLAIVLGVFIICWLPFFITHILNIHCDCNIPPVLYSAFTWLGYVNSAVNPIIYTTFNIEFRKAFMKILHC
Experimental: Striata from rats (Sprague Dawley, Charles River) were homogenized immediately after removal in 0.32M sucrose solution (0° C.). The homogenate was filtered through gauze, the filtrate was centrifuged at 1000 ×g (5 min at 4° C.) and the resulting supernatant was centrifuged at 40000 ×g (4° C., 10 min). The residue (membranes) was taken up in incubation buffer (50 mM tris-HCl, 1 mM MgCl2 and 0.1% ascorbic acid, pH 7.4) and incubated at 37° C. for 20 min. The residue was subsequently washed 2× with incubation buffer by resuspension and recentrifugation. The membranes were frozen in portions in liquid nitrogen.
The assay mixtures (1 ml) were composed of membranes (380 μg of protein), 1 nM ^3 H-ADTN (NEN, Dreieich Germany, specific radioactivity 1.4 TBq/mmol) and 0.1 μM SCH 23390 (total binding) or a) with the addition of 50 nM spiperone (non-specific binding) or b) with test substance. The mixtures were prepared in triplicate.
After the incubation (40 min at 25° C.) the mixtures were filtered through glass fiber filters (Whatman GF/B) and briefly washed with ice-cold washing buffer (tris-HCl, pH 7.4). The radioactivity retained on the filters was determined by liquid scintillation counting. The non-specific binding comprised about 40-50% of the total binding.
The evaluation of the competition plots and the determination of the dissociation constant took place by iterative non-linear regression analysis based on the "ligand" program (Muson and Rodbard: Anal. Biochem. 107 (1980) 220).

Structure (SMILES)	Ki [1]	Ki
CCCN(CCSc1sc(N)nc1C)CCc1ccccc1 [Example 5, 2-Amino-4-methyl-5-[2-(N-phenethyl-N-propylamino)-ethylthio]thiazole hydrochloride]	18 nM	
Cc1nc(N)sc1SCCN1CC=C(c2ccccc2)CC1 [Example 2, 2-Amino-5-[2-(1,2,3,6-tetrahydro-4-phenylpyridinyl)-ethylthio]-4-methylthiazole hydrochloride]		3 nM
Cc1nc(N)sc1SCCN1CCN(c2ccccc2)CC1 [Example 3, 2-Amino-4-methyl-5-[2-(4-phenylpiperazinyl)ethylthio]thiazole hydrochloride]	19 nM	
Cc1nc(N)sc1SCCN1CCC(c2ccccc2)CC1 [Example 1, 2-Amino-4-methyl-5-[2-(4-phenylpiperidinyl)ethyl-thio]thiazole hydrochloride]	12 nM	
CCCN(CCCSc1sc(N)nc1C)CCc1ccccc1 [Example 7, 2-Amino-4-methyl-5-[3-(N-phenethyl-N-propylamino)propylthio]thiazole tartrate]	9 nM	
